Like-named read-outs stand apart in the source and are kept apart here.

The results in this text go back to patent publication US20080096897A1, “5-(1,1'Biphenyl)-4-Yl-5-(4-(4-Aminoacylphenyl)-Piperazin)-1-Yl-Pyrimidine-2,4,6,-Trione Derivatives, As Inhibitors Of Zinc Metallondopeptidases, Their Preparation And Use” (priority 2004, published 2008).

One assay deals with recombinant human MMP14 (Homo sapiens, UniProt P50281). As to the kind of experiment: MMP inhibition on isolated enzymes, fluorigenic peptide substrate. The class given is biochemical. The source says: (§1) The matrix metalloproteinase (MMP) inhibitory activity has been evaluated in a classical biochemical assay using fluorigenic peptide substrates. Briefly, a peptide bearing 1) a fluorescent group and 2) a quenching group bound to another amino acid of the peptide is submitted to the proteolytic action of an MMP. The cleavage of peptide bounds due to the MMP results in a dequenching of the fluorescent group. There is a direct relationship between the observed fluorescence and the activity of the enzyme. The MMP inhibiting activity of a given substance can then be assessed using this assay.
(§2) The compounds of the present invention have been assayed using this assay design with recombinant human MMP2, MMP14 and MMP16 and the peptide ZGly-Gly-ArgAMC, which is a well-known, commercially available substrate of MMPs.
(§3) The following IC50 values (inhibitor concentration required to inhibit 50% of the enzyme) have been obtained with the compounds prepared according to examples 2 to 5 and compared to a product of the state of the art, better known as Ro 28-2653. Ro 28-2653 is included in claim 1 of WO 01/25217.

The next assay concerns the target recombinant human MMP16 (Homo sapiens, UniProt P51512). Described as above. The assay is classed as biochemical.
Excerpt: as §1, §2, §3

In the next assay the target is T1, recombinant human MMP2 (Homo sapiens, UniProt P08253).
T1 sequence (P08253 110-660): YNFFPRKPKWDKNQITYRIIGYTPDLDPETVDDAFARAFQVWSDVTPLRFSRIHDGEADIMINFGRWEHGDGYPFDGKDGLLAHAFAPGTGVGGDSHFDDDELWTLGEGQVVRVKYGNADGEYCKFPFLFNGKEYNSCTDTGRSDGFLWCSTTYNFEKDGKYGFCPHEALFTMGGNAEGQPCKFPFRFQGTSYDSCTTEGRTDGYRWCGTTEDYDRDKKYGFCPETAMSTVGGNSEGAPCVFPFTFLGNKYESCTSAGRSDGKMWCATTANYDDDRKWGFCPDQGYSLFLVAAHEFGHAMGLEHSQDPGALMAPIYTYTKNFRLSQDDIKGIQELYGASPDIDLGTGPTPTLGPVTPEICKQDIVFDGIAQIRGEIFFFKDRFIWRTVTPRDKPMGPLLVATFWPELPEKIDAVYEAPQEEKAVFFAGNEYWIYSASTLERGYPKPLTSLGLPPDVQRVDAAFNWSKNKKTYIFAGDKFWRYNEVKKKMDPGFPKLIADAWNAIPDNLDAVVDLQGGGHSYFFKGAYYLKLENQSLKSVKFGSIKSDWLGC
The assay is described as above. The class given is biochemical.
Excerpt: as §1, §2, §3

For assay [1], the system named is capillary vessel outgrowth from aorta rings. Briefly: aorta ring angiogenesis assay. The class given is cell-based. Particulars: 10 μM in culture medium, rat aorta rings in collagen, 6-9 days. The method, then:
Compound 5-(1,1′-biphenyl)-4-yl-5-{4-[4-(2,5-dioxopyrrolidin-1-yl)phenyl]piperazin-1-yl}pyrimidine-2,4,6(1H,3H,5H)-trione prepared according to example 4 has also been assayed in an aorta ring angiogenesis assay.
Briefly, in the aorta ring assay, fresh slices (ring) of aorta dissected from rat were embedded in collagen1 and then cultivated in Petri dishes after addition of culture medium (n=6). […] The effect of the compound of example 4 (10 μM) on angiogenesis was evaluated by its potency to stimulate or to inhibit the outgrowth of the capillary vessels when it was added to the culture medium (n=6).

recombinant human MMP16, sequence (P51512 120-607): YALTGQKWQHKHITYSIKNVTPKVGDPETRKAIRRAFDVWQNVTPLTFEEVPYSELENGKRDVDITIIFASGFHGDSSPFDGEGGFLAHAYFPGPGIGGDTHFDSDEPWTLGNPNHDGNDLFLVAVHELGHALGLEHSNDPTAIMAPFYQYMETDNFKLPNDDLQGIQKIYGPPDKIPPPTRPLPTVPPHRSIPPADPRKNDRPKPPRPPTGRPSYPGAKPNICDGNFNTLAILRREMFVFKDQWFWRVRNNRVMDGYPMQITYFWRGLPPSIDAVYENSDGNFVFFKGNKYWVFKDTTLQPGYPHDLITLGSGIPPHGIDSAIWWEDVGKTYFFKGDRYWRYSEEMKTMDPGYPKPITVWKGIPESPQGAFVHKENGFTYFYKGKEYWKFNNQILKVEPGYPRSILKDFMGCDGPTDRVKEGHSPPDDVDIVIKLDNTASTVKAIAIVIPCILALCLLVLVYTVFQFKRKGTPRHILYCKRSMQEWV

As to `O=C1NC(=O)C(c2ccc(-c3ccccc3)cc2)(N2CCN(c3ccc([N+](=O)[O-])cc3)CC2)C(=O)N1` [Ro 28-2653, reference compound], the IC50 on recombinant human MMP14 amounted to 96 nM; at recombinant human MMP16, 91 nM; at recombinant human MMP2, 246 nM.

For `O=C(O)CCC(=O)Nc1ccc(N2CCN(C3(c4ccc(-c5ccccc5)cc4)C(=O)NC(=O)NC3=O)CC2)cc1` [example 2, N-{4-[4-(5-(1,1′-Biphenyl)-4-yl-2,4,6-trioxoperhydropyrimidin-5-yl)piperazin-1-yl]-phenyl}succinamic acid], the 50% inhibitory concentration (IC50) is 29 nM at recombinant human MMP14, 39 nM at recombinant human MMP16 and 110 nM on recombinant human MMP2.

For `O=C(O)CCCC(=O)Nc1ccc(N2CCN(C3(c4ccc(-c5ccccc5)cc4)C(=O)NC(=O)NC3=O)CC2)cc1` [example 3, 4-{4-[4-(5-(1,1′-Biphenyl)-4-yl-2,4,6-trioxoperhydropyrimidin-5-yl)piperazin-1-yl]-phenylcarbamoyl}butyric acid], the IC50 came to 26 nM on recombinant human MMP14, 49 nM at recombinant human MMP16 and 98 nM at recombinant human MMP2.

On to `O=C1NC(=O)C(c2ccc(-c3ccccc3)cc2)(N2CCN(c3ccc(N4C(=O)CCC4=O)cc3)CC2)C(=O)N1` [example 4, 5-(1,1′-Biphenyl)-4-yl-5-{4-[4-(2,5-dioxopyrrolidin-1-yl)phenyl]piperazin-1-yl}pyrimidine-2,4,6(1H,3H,5H)-trione], for which the IC50 on recombinant human MMP14 was 13 nM; on recombinant human MMP16 it was 21 nM; at recombinant human MMP2 it was 75 nM. Besides, in assay [1], the “effect on capillary vessel outgrowth (angiogenesis)” value is “severely inhibit the capillary vessel outgrowth”.

Turning to `O=C1CCC(=O)N(c2ccc(N3CCN(C4(c5ccc(-c6ccccc6)cc5)C(=O)NC(=O)NC4=O)CC3)cc2)C1` [example 5, 5-(1,1′-Biphenyl)-4-yl-5-{4-[4-(2,5-dioxopiperidin-1-yl)phenyl]piperazin-1-yl}pyrimidine-2,4,6(1H,3H,5H)-trione], the IC50 was found to be 23 nM on recombinant human MMP14 (recombinant human MMP14, substrate ZGly-Gly-ArgAMC, read-out: IC50 (nM) values on isolated enzymes MMP-14); 20 nM at recombinant human MMP16 (recombinant human MMP16, substrate ZGly-Gly-ArgAMC, read-out: IC50 (nM) values on isolated enzymes MMP-16); 93 nM on recombinant human MMP2 (recombinant human MMP2, substrate ZGly-Gly-ArgAMC, read-out: IC50 (nM) values on isolated enzymes MMP-2).
